How the values were obtained:
[1] = molecular target: T1, h-GABA-A α5β3γ2 (Homo sapiens (Human), UniProt P18507+P31644); assay: [3H]flumazenil competition binding assay, membranes of HEK293 cells expressing human GABAA receptors; conditions: displacement of [3H]flumazenil 0.5 nM, HEK293 cells expressing human receptors, mean of two determinations; read-out: Ki h-GABA-A α5β3γ2
In short: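 Membranes were prepared from HEK293 cells with transient human α5β3γ2 expression and assayed in Krebs-tris, pH 7.5. Bound radioactivity measured on filters by liquid scintillation.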

[2] = molecular target: T1, h-GABA-A α5β3γ2; assay: Two-electrode voltage clamp electrophysiology in Xenopus oocytes expressing GABAA receptors, modulation of GABA EC20 current; format: cell-based; conditions: Xenopus oocytes; for Efficacy (GABA) %: % modulation of GABA EC20 = 100*(Fold increase−1); for Fold increase h-GABA-A α5β3γ2 oocyte: GABA EC20, test compound at approx. 30 fold its Ki
In short: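 Values are % modulation of an EC20 GABA response, derived point by point from the ratio of compound-exposed versus control current traces (extremum taken, 100×(fold−1)). Recordings used oocytes injected with human α5, β3, γ2 mRNA, clamped at −80 mV at room temperature, at least 3 oocytes each.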

| Ki [1] | Efficacy (GABA) % [2] | Fold increase h-GABA-A α5β3γ2 oocyte [2] | Structure (SMILES) |
| --- | --- | --- | --- |
| 56.2 nM | 72% | 1.72 | CCOC(=O)C1(NC(=O)c2ccc(OCc3c(-c4ccc(C)nc4)noc3C)nn2)CC1 [Example 68, ethyl 1-(6-((5-methyl-3-(6-methylpyridin-3-yl)isoxazol-4-yl)methoxy)pyridazine-3-carboxamido)cyclopropanecarboxylate] |
| 7.7 nM | 86% | 1.86 | Cc1ccc(-c2noc(C)c2COc2ccc(C(=O)NC3(C#N)CC3)nn2)cn1 [Example 69, N-(1-cyanocyclopropyl)-6-((5-methyl-3-(6-methylpyridin-3-yl)isoxazol-4-yl)methoxy)pyridazine-3-carboxamide] |
| 1.2 nM | 54% | 1.54 | Cc1ccc(-c2noc(C)c2COc2nnc(C(N)=O)cc2C)cn1 [Example 70, 5-methyl-6-((5-methyl-3-(6-methylpyridin-3-yl)isoxazol-4-yl)methoxy)pyridazine-3-carboxamide] |
| 2.4 nM | 61% | 1.61 | Cc1ccc(-c2noc(C)c2COc2nnc(C(=O)NC3CCOCC3)cc2C)cn1 [Example 71] |
| 11.4 nM | 130% | 2.3 | Cc1ccc(-c2noc(C)c2COc2cnc(C(=O)NC3CCS(=O)(=O)CC3)cn2)cn1 [Example 72, N-(1,1-dioxothian-4-yl)-5-((5-methyl-3-(6-methyl-3-pyridyl)isoxazol-4-yl)methoxy)pyrazine-2-carboxamide] |
| 52.8 nM | 45% | 1.45 | Cc1ccc(-c2noc(C)c2COc2cnc(C(=O)NC(C)(C)CO)cn2)cn1 [Example 73, N-(2-hydroxy-1,1-dimethyl-ethyl)-5-((5-methyl-3-(6-methyl-3-pyridyl)isoxazol-4-yl)methoxy)pyrazine-2-carboxamide] |
| 9.2 nM | 28% | 1.28 | Cc1ccc(-c2noc(C)c2COc2cnc(C(=O)NC3CC3)cn2)cn1 [Example 74, N-cyclopropyl-5-((5-methyl-3-(6-methyl-3-pyridyl)isoxazol-4-yl)methoxy)pyrazine-2-carboxamide] |
| 9 nM | 92% | 1.92 | Cc1ccc(-c2noc(C)c2COc2ccc(C(=O)NC3(C)CC3)nn2)cn1 [Example 76, 6-((5-methyl-3-(6-methylpyridin-3-yl)isoxazol-4-yl)methoxy)-N-(1-methylcyclopropyl)pyridazine-3-carboxamide] |
| 24.3 nM | 42% | 1.42 | Cc1ccc(-c2noc(C)c2COc2cnc(C(=O)NCC(F)(F)F)cn2)cn1 [Example 78, 5-((5-methyl-3-(6-methyl-3-pyridyl)isoxazol-4-yl)methoxy)-N-(2,2,2-trifluoroethyl)pyrazine-2-carboxamide] |
| 11.3 nM | 96% | 1.96 | Cc1ccc(-c2noc(C)c2COc2ccc(C(=O)NC(C)(C)CCO)nn2)cn1 [Example 79, N-(4-hydroxy-2-methylbutan-2-yl)-6-((5-methyl-3-(6-methylpyridin-3-yl)isoxazol-4-yl)methoxy)pyridazine-3-carboxamide] |
| 5 nM | 96% | 1.96 | Cc1ccc(-c2noc(C)c2COc2ccc(C(=O)NC3(C)COC3)nn2)cn1 [Example 83, 6-((5-methyl-3-(6-methylpyridin-3-yl)isoxazol-4-yl)methoxy)-N-(3-methyloxetan-3-yl)pyridazine-3-carboxamide] |
| 19 nM | 54% | 1.54 | Cc1ccc(-c2noc(C)c2COc2ccc(C(=O)N3CC(C#N)C3)nn2)cn1 [Example 84, 1-(6-((5-methyl-3-(6-methylpyridin-3-yl)isoxazol-4-yl)methoxy)pyridazine-3-carbonyl)azetidine-3-carbonitrile] |
| 17 nM | 120% | 2.2 | Cc1ccc(-c2noc(C)c2COc2cnc(C(=O)NC3CCC(F)(F)CC3)cn2)cn1 [Example 86, N-(4,4-difluorocyclohexyl)-5-((5-methyl-3-(6-methyl-3-pyridyl)isoxazol-4-yl)methoxy)pyrazine-2-carboxamide] |
| 8.1 nM | 80% | 1.8 | Cc1ccc(-c2noc(C)c2COc2ccc(C(=O)N[C@H]3CCOC3)nn2)cn1 [Example 87, (S)-6-((5-methyl-3-(6-methylpyridin-3-yl)isoxazol-4-yl)methoxy)-N-(tetrahydrofuran-3-yl)pyridazine-3-carboxamide] |
| 40.9 nM | 68% | 1.68 | CC[C@@H](CC#N)NC(=O)c1ccc(OCc2c(-c3ccc(C)nc3)noc2C)nn1 [Example 88, (S)—N-(1-cyanobutan-2-yl)-6-((5-methyl-3-(6-methylpyridin-3-yl)isoxazol-4-yl)methoxy)pyridazine-3-carboxamide] |
| 13.1 nM | 31% | 1.31 | Cc1ccc(-c2noc(C)c2COc2cnc(C(=O)N[C@@H]3CCOC3)cn2)cn1 [Example 89, (R)-5-((5-Methyl-3-(6-methylpyridin-3-yl)isoxazol-4-yl)methoxy)-N-(tetrahydrofuran-3-yl)pyrazine-2-carboxamide] |
| 16.7 nM | 37% | 1.37 | Cc1ccc(-c2noc(C)c2COc2cnc(C(=O)NCCO)cn2)cn1 [Example 90, N-(2-Hydroxyethyl)-5-((5-methyl-3-(6-methylpyridin-3-yl)isoxazol-4-yl)methoxy)pyrazine-2-carboxamide] |
| 5.5 nM | 140% | 2.4 | Cc1ccc(-c2noc(C)c2COc2cc3c(cn2)C(=O)N(C2CCS(=O)(=O)CC2)C3)cn1 [Example 91, 2-(1,1-dioxothian-4-yl)-6-((5-methyl-3-(6-methylpyridin-3-yl)-1,2-oxazol-4-yl)methoxy)-1H-pyrrolo[3,4-c]pyridin-3-one] |
| 10 nM | 92% | 1.92 | Cc1ccc(-c2noc(C)c2COc2cnc(C(=O)NC3CCS(=O)(=O)C3)cn2)cn1 (stereo not drawn) [Example 94, N-(1,1-dioxothiolan-3-yl)-5-((5-methyl-3-(6-methylpyridin-3-yl)-1,2-oxazol-4-yl)methoxy)pyrazine-2-carboxamide] |
| 13.4 nM | 67% | 1.67 | Cc1ccc(-c2noc(C)c2COc2cnc(C(=O)NCC3CC3)cn2)cn1 [Example 95, N-(cyclopropylmethyl)-5-((5-methyl-3-(6-methylpyridin-3-yl)isoxazol-4-yl)methoxy)pyrazine-2-carboxamide] |
| 7.2 nM | 88% | 1.88 | Cc1ccc(-c2noc(C)c2COc2cc3c(cn2)C(=O)N(C2CCC(F)(F)CC2)C3)cn1 [Example 96, 2-(4,4-difluorocyclohexyl)-6-((5-methyl-3-(6-methylpyridin-3-yl)isoxazol-4-yl)methoxy)-1H-pyrrolo[3,4-c]pyridin-3(2H)-one] |
| 13.6 nM | 71% | 1.71 | Cc1ccc(-c2noc(C)c2COc2ccc(C(=O)NC3(C)CCOCC3)nn2)cn1 [Example 97, 6-((5-methyl-3-(6-methylpyridin-3-yl)isoxazol-4-yl)methoxy)-N-(4-methyltetrahydropyran-4-yl)pyridazine-3-carboxamide] |
| 62.2 nM | 76% | 1.76 | Cc1ccc(-c2noc(C)c2COc2cnc(C(=O)N[C@@H]3CCCOC3)cn2)cn1 [Example 98, (R)-5-((5-methyl-3-(6-methylpyridin-3-yl)isoxazol-4-yl)methoxy)-N-(tetrahydropyran-3-yl)pyrazine-2-carboxamide] |
| 6.8 nM | 73% | 1.73 | Cc1ccc(-c2noc(C)c2COc2ccc(C(=O)N[C@@H]3CCCOC3)nn2)cn1 [Example 99, (R)-6-((5-methyl-3-(6-methylpyridin-3-yl)isoxazol-4-yl)methoxy)-N-(tetrahydropyran-3-yl)pyridazine-3-carboxamide] |
| 8.5 nM | 70% | 1.7 | Cc1ccc(-c2noc(C)c2COc2ccc(C(=O)NC3CC4(COC4)C3)nn2)cn1 [Example 100, 6-((5-methyl-3-(6-methylpyridin-3-yl)isoxazol-4-yl)methoxy)-N-(2-oxaspiro[3.3]heptan-6-yl)pyridazine-3-carboxamide] |
| 50.6 nM | 82% | 1.82 | Cc1ccc(-c2noc(C)c2COc2cnc(C(=O)NC3CC4(COC4)C3)cn2)cn1 [Example 101, 5-((5-methyl-3-(6-methylpyridin-3-yl)isoxazol-4-yl)methoxy)-N-(2-oxaspiro[3.3]heptan-6-yl)pyrazine-2-carboxamide] |

| Structure (SMILES) | Ki [1] | Efficacy (GABA) % [2] | Fold increase h-GABA-A α5β3γ2 oocyte [2] |
| --- | --- | --- | --- |
| Cc1ccc(-c2noc(C)c2COc2cnc(C(=O)NC3COC3)cn2)cn1 [Example 77, 5-((5-methyl-3-(6-methyl-3-pyridyl)isoxazol-4-yl)methoxy)-N-(oxetan-3-yl)pyrazine-2-carboxamide] | 5.2 nM | 11% | 1.11 |

Source: US20240279218A1 (Hoffmann-La Roche Inc., priority 2016, published 2024)
